In publication doi:10.1101/2025.03.03.641126v1 (bioRxiv, 2025):

Tested on: Panc354 and MetPO1 cells
Assay: Flow cytometry for CD133 after combination treatment
Assay type: cell-based, human
Settings: representative cytometry plot, JM#21 10μM, Gem 1μM

Nc1ccn([C@@H]2O[C@H](CO)[C@@H](O)C2(F)F)c(=O)n1 [gemcitabine]
CD133 - PE positive cells: 14.5%
